Reference: patent publication US6858630B2, “Naphthimidazole derivatives and their use as thrombopoietin mimetics” (SmithKline Beecham Corporation, priority 1999, dated 2005)

Target: T1, TPO receptor (Homo sapiens, UniProt P40238)
T1 construct: expressed in transfected cells; host or cells: murine BaF3 cells
T1 sequence (P40238 26-635): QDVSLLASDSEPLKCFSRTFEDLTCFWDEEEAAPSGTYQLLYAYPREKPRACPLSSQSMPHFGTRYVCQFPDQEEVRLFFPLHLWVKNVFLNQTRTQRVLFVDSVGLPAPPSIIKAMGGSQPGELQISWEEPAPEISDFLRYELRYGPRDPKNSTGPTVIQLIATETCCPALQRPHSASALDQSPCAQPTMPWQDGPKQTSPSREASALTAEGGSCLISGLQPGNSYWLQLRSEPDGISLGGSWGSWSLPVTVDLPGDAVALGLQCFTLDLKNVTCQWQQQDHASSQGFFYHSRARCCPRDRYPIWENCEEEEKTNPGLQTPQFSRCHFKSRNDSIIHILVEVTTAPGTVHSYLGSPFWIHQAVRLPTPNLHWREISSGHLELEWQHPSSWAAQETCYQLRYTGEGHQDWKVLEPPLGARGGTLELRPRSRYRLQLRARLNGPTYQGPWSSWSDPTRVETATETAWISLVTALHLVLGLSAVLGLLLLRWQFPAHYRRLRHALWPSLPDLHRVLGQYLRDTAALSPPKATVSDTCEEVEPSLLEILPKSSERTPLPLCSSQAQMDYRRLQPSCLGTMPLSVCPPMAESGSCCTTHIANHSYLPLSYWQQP
Test: Luciferase assay (TPO-responsive BaF3 cell line)
Assay type: cell-based, murine
Settings: at a concentration of 2 uM; control is the maximal response to TPO
Protocol: Compounds of the present invention were tested for potency as mimetics of the TPO receptor in a Luciferase assay such as described in Lamb, et al., Nucleic Acids Research 23; 3283-3289 (1995) and Seidel, et al., Proc. Natl. Acad. Sci., USA 92: 3041-3045 (1995) by substituting a TPO-responsive BaF3 cell line (Vigon et al. Proc. Natl. Acad. Sci. USA 1992, 89, 5640-5644) for the HepG2 cells utilized therein. The murine BaF3 cells express TPO receptors and closely match the pattern of STAT (signal transducers and activators of transcription) activation observed in primary murine and human bone marrow cells.

Question: With COc1c(-c2ccc(C)cc2)cccc1-c1nc2c(ccc3cc(S(=O)(=O)O)cc(O)c32)[nH]1.Cl [Compound 14, 2-(3-[4′-Methylphenyl]-2-methoxyphenyl)-9-hydroxy-naphth[1,2-d]imidazole-7-sulfonic acid hydrochloride] as the compound, how does the “activation, % of control in the luciferase assay” value read?
Answer: The value was “about 25%”.
